# In patent publication US20250042887A1, “GLYCOGEN SYNTHASE KINASE-3 (GSK3) INHIBITOR COMPOUNDS FOR USE AS ANTIVIRAL AGENTS” (priority 2021, published 2025):
# Entries after “also recorded” stand apart in the source; their conditions may differ. Like-named read-outs stand apart in the source and are kept apart here.
# How the values were obtained:
# HCoV-229E [1] = experiment: High-content screen of GSK3β-focused library in HCoV-229E infected Huh-7.5.1 cells (intracellular dsRNA); format: cell-based, human coronavirus 229E (HCoV-229E); details: Human coronavirus 229E, single dose of 10 μM, Z′ 0.7
# SARS-CoV-2 [2] = experiment: High-content screen of GSK3β-focused library in SARS-CoV-2 infected Huh-7.5.1 cells (dsRNA or nucleocapsid); format: cell-based; details: Severe acute respiratory syndrome coronavirus 2, single dose of 10 μM, Huh-7.5.1 cells
# SARS-CoV-2 [3] = experiment: Dose-response of SARS-CoV-2 viral load (intracellular N protein) in Huh-7.5.1 cells; format: cell-based
# HCoV-229E [4] = experiment: Dose-response of HCoV-229E viral load (dsRNA) in Huh-7.5.1 cells; format: cell-based, human coronavirus 229E (HCoV-229E); details: Human coronavirus 229E, read-out: ED50 (HCoV-229E)
# HCoV-229E [5] = format: cell-based, human coronavirus 229E (HCoV-229E)
# SARS-CoV-2 [6] = experiment: Dose-response inhibition in three SARS-CoV-2 infected immortalized cell lines (Huh-7.5.1, Caco-2, Calu-3); format: cell-based; details: Severe acute respiratory syndrome coronavirus 2; Huh-7.5.1, Caco-2 and Calu-3 cells; read-out: ED50 in all investigated cell lines
# SARS-CoV-2 [7] = experiment: Viral titer released from 48-hour SARS-CoV-2 infected Calu-3 cells; format: cell-based; details: 48 hours after infection, 100 μM
# SARS-CoV-2 [8] = experiment: SARS-CoV-2 infected primary donor-derived colon organoids, intracellular N protein; format: cell-based; details: donor intestinal organoids monolayer, 72-hours post infection, dose-dependent
# [9] = tested on: SARS-CoV-2 Spike S1 protein expression; format: cell-based
# Huh-7.5.1 cells = details: single dose of 10 μM
# Protocol: High content screening methodology and parameters. Monitoring of the total number of cells (based on nuclei staining) and number of virus infected cells (based on dsRNA and Nucleocapsid staining) was performed using the CellInsight CX7™ High Content Screening platform (Thermo Fisher™), as previously described (33042061). Shortly, nuclei are identified and counted using the 350′461 nm wavelength (Hoechst 33342™); cell debris and other particles are deducted based on a size filter tool. A Region of Interest (ROI, or “circle”) is then drawn around each host cell and validated against the bright field image to correspond with host cell membranes. The ROI encompasses the “spots”, where dsRNA (485/521 nm wavelength) and SARS-CoV-2 nucleocapsid (533/588 nm wavelength) are localized. Finally, the software (HCS Studio Cell Analysis Software™, version 4.0) identifies, counts and measures the pixel area and intensity of the spots within each circle. The fluorescent spot area measured within each cell (circle) is then added and quantified for each well. The total circle spot intensity of each well corresponds to the viral load, and is normalized to non-infected cells, and to cells infected with no compound. Nuclei stain (Hoechst 33342™) was used to quantify cell loss (due to cytotoxicity or loss of adherence), and to normalize the changes in viral load resulting from a decrease in cell numbers.
# in vitro = details: human
# [10] = biological target: cyclin-dependent kinase 2/cyclin A2 (CDK2/A2) (Homo sapiens, UniProt P24941); experiment: In vitro phosphorylation of nucleocapsid peptides, ADP-Glo, CDK2/cyclin A2; format: biochemical; details: peptide ~250 μM, 250 μM ATP, 30 min at 30° C.; duplicate measurements
# casein kinase 1-delta = biological target: T1, casein kinase 1-delta (Homo sapiens, UniProt P48730); experiment: In vitro phosphorylation of nucleocapsid peptides, ADP-Glo, CK1d; format: biochemical; details: peptide ~250 μM, 250 μM ATP, 30 min at 30° C.; duplicate measurements
# T1 construct: GST; purchased SignalChem C65-10G
# T1 sequence (P48730 whole entry): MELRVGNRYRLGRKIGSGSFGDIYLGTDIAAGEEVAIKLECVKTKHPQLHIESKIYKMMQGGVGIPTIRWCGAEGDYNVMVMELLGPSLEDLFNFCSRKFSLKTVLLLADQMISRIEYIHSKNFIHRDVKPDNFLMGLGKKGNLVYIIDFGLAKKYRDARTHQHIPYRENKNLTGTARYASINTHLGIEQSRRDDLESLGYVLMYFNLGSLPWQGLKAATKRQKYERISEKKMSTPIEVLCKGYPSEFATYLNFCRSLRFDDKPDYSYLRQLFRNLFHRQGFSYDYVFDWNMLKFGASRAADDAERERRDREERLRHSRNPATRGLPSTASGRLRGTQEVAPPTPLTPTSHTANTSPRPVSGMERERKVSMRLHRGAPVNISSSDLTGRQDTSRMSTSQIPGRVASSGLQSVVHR
# [11] = biological target: T2, casein kinase 1-gamma-1 (CK1γ1) (Homo sapiens, UniProt Q9HCP0); experiment: In vitro phosphorylation of nucleocapsid peptides, ADP-Glo, CK1g1; format: biochemical; details: peptide ~250 μM, 250 μM ATP, 30 min at 30° C.; duplicate measurements
# T2 construct: GST; purchased SignalChem C68-11G
# T2 sequence (Q9HCP0 whole entry): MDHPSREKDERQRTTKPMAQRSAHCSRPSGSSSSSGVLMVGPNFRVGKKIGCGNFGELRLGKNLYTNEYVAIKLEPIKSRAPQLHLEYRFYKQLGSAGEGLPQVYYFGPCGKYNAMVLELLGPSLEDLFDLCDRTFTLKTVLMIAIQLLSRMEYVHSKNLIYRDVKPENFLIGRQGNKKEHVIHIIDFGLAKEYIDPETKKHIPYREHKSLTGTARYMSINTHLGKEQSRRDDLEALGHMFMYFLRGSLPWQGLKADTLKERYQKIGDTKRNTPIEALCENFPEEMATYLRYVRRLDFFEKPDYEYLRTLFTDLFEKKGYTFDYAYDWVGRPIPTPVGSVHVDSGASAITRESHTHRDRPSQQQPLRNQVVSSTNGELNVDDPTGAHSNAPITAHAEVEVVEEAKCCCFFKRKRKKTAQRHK
# [12] = biological target: T3, extracellularly-regulated kinase-1 (ERK1) (Homo sapiens, UniProt P27361); experiment: In vitro phosphorylation of nucleocapsid peptides, ADP-Glo, ERK1; format: biochemical; details: peptide ~250 μM, 250 μM ATP, 30 min at 30° C.; duplicate measurements
# T3 construct: GST; purchased SignalChem M29-10G
# T3 sequence (P27361 whole entry): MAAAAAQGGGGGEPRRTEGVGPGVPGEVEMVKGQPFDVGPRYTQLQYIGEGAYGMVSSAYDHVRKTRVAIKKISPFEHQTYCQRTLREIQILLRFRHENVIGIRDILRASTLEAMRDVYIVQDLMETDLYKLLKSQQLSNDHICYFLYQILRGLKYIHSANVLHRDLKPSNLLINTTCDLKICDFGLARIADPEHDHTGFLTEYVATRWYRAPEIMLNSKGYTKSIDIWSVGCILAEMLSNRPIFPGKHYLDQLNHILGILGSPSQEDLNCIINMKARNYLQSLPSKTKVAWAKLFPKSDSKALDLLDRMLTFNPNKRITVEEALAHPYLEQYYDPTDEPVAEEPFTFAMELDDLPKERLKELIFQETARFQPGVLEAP
# [13] = biological target: T4, glycogen synthase kinase-3-beta (Homo sapiens, UniProt P49841); experiment: In vitro phosphorylation of nucleocapsid peptides, ADP-Glo, GSK3b; format: biochemical
# T4 construct: GST; purchased SignalChem Go9-10G
# T4 sequence (P49841 whole entry): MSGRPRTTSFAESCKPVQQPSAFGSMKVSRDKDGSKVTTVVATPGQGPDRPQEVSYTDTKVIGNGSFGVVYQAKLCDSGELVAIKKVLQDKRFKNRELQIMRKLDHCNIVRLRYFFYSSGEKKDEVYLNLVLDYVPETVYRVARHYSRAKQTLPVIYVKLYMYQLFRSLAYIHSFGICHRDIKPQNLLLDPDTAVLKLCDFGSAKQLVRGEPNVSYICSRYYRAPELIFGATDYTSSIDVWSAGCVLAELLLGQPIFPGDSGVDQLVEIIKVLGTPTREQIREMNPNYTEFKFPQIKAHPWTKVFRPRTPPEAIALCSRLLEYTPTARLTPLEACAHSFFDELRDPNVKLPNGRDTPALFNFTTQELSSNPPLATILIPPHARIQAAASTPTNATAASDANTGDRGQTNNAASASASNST
# [14] = biological target: cAMP-dependent protein kinase catalytic subunit-alpha (PKACa) (Homo sapiens, UniProt P17612); experiment: In vitro phosphorylation of nucleocapsid peptides, ADP-Glo, PKACa; format: biochemical; details: peptide ~250 μM, 250 μM ATP, 30 min at 30° C.; duplicate measurements
# [15] = biological target: T5, protein kinase C-alpha (PKC α) (Homo sapiens, UniProt P17252); experiment: In vitro phosphorylation of nucleocapsid peptides, ADP-Glo, PKCa; format: biochemical; details: Mean ± S.Dev. (n = 3); no kinase control = 100
# T5 construct: GST; purchased SignalChem P61-18G
# PKCa + GSK3b = experiment: In vitro phosphorylation of nucleocapsid peptides, ADP-Glo, PKCa + GSK3b combined; format: biochemical, human; details: Mean ± S.Dev. (n = 3); no kinase control = 100
compound,measurement,setting,value
CSc1ccc(-n2cnc3ccc(-c4nnc(CCc5cccc(C#N)c5)o4)cc32)cc1 [Compound P-0717632],inhibition at 10 µM,HCoV-229E [1],97.6%
same,inhibition at 10 µM,"SARS-CoV-2 [2]; Z′ 0.3, read-out: SARS-CoV-2 inhibition (% dsRNA)",68.2%
same,inhibition at 10 µM,"SARS-CoV-2 [2]; average of screens 1 and 2, read-out: Average SARS-CoV-2 Nucleocapsid inhibition",79.3%
same,inhibition at 10 µM,"SARS-CoV-2 [2]; screen 1, Z′ 0.7, read-out: SARS-CoV-2 inhibition (% Nucleocapsid) 1",75.2%
same,inhibition at 10 µM,"SARS-CoV-2 [2]; screen 2, Z′ 0.5, read-out: SARS-CoV-2 inhibition (% Nucleocapsid) 2",83.3%
same,SARS-CoV-2 Selectivity Index SI (CC50 over ED50),SARS-CoV-2 [3]; Huh 7.5.1 cells,68
same,ED80,SARS-CoV-2 [3]; SARS-CoV-2 infected Huh-7.5.1 cells,10 µM
same,EC50,"SARS-CoV-2 [3]; Severe acute respiratory syndrome coronavirus 2, Huh-7.5.1, Huh-7.5.1 cells, intracellular N protein, read-out: ED50 (SARS-CoV-2)",~3000 nM
same,EC50,HCoV-229E [4],~3000 nM
same,average Combination Index (CI),HCoV-229E [5],0.7
same,EC50,SARS-CoV-2 [6],4 to 7 µM
same,reduction of release of infective particles,SARS-CoV-2 [7],2 log
same,effect on intracellular N protein levels in organoids,SARS-CoV-2 [8],greatly decrease intracellular N protein levels
same,Spike S1 protein expression,[9],blocked; also recorded: reduced
same,Average cell loss (%),Huh-7.5.1 cells,24.4%
same,CC50,in vitro,> 100 µM
"RNSTPGSSRGTSPAR [SCV2-N [195-209], synthetic peptide modeled after SARS-CoV-2 nucleocapsid protein phosphorylation sites]","Relative Phosphorylation to Autophosphorylation Control (set at 100), CDK2 + Cyclin A2",[10],104
same,"Relative Phosphorylation to Autophosphorylation Control (set at 100), CK1d",casein kinase 1-delta,101
same,"Relative Phosphorylation to Autophosphorylation Control (set at 100), CK1g1",[11],104
same,"Relative Phosphorylation to Autophosphorylation Control (set at 100), ERK1",[12],102
same,"Relative Phosphorylation to No Kinase Control, GSK3b","[13]; Mean ± S.Dev. (n = 3), no kinase control = 100",3291 ± 57
same,"Relative Phosphorylation to Autophosphorylation Control (set at 100), GSK3b","[13]; peptide ~250 μM, 250 μM ATP, 30 min at 30° C., duplicate measurements",137
same,"Relative Phosphorylation to Autophosphorylation Control (set at 100), PKACa",[14],151
same,"Relative Phosphorylation to No Kinase Control, PKCa",[15],3301 ± 114
same,"Relative Phosphorylation to No Kinase Control, PKCa + GSK3b",PKCa + GSK3b,4262 ± 27
